From PubChem BioAssay (NCI) come the findings set out here.

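Grown in 96-well plates, cells were treated for 48 hours with each compound at five concentrations. Insufficient inhibition: endpoint recorded as highest concentration tested. TGI denotes the concentration required for complete inhibition of growth.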

Assay in all cases: NCI tumour cell line growth inhibition, 48 h
In assay [1] the test system is TK-10 renal.
The test system of assay [2] is RXF 393 renal.
The subject of assay [3] is MALME-3M melanoma.
Assay [4] has as its system EKVX NSCLC.
Assay [5] concerns HT29 colon.
Assay [6] concerns NCI-H23 lung.
Assay [7] relates to NCI-H460 lung.
Assay [8] concerns CAKI-1 renal.
For assay [9], the system named is SK-MEL-2 melanoma.
Assay [10] concerns SNB-75 CNS.
The test system of assay [11] is KM12 colon.
For assay [12], the system named is HS 578T breast.
Assay [13] concerns HL-60(TB) leukemia.
Assay [14] has as its system DU-145 prostate.
Assay [15] relates to BT-549 breast.
The test system of assay [16] is UACC-257 melanoma.
In assay [17] the test system is RPMI-8226 leukemia.
In assay [18] the test system is MOLT-4 leukemia.
The subject of assay [19] is OVCAR-8 ovarian.

As for `CCOC(=O)c1cc2cc(C)cc(C(=O)c3ccc([N+](=O)[O-])cc3)c2[nH]1`, the TGI in assay [1], in assay [2], in assay [3], in [4], in [5] and in [6] was > 100 µM throughout. In addition, the TGI in [7], in [8], in assay [9], in [10], in [11] and in assay [12] was > 100 µM throughout. Moreover, the TGI in assay [13], in assay [14], in [15], in assay [16], in [17] and in assay [18] was > 100 µM each time.

Regarding `O=C(O)C1=NN(c2ccc(S(=O)(=O)O)cc2)C2(C1)SCC(=O)N2c1nc2ccccc2s1` (stereo unspecified), the TGI in assay [1], in assay [2], in assay [3], in assay [4], in [5] and in [19] was > 100 µM each time. Further, the TGI in assay [6], in [7], in assay [8], in assay [9], in assay [10] and in [11] was > 100 µM each time. Besides, the TGI in [12], in assay [13], in assay [14], in assay [15], in [16] and in assay [17] was > 100 µM in each case. The TGI in assay [18] was > 100 µM.

`O=c1[nH]c2cc([N+](=O)[O-])ccc2nc1/C=C(\O)c1ccc(Cl)cc1`: the TGI worked out at 16.5 µM in assay [1]; 11.9 µM in assay [2]; 84.9 µM in assay [3]; 35.5 µM in assay [4]; 32.7 µM in assay [5]; 21.5 µM in [19]. For the same compound, the TGI in assay [6] was found to be 29.4 µM; in [7], 24 µM; in assay [8] it was 33.1 µM; in [9], 36.4 µM; in assay [10], 55 µM; in assay [11], 40 µM. Also, the TGI in assay [12] came to 44.8 µM; in assay [13], 44.1 µM; in assay [14], 23 µM; in assay [15] it was 19.1 µM; in assay [16], 60.5 µM; in [17], 65.2 µM. The compound further gave a TGI in assay [18] of 46.2 µM.

On to `CCOP(=O)(OCC)C(F)(F)Cc1cnc(C)c2c1COC(C)(C)O2`, for which the TGI in assay [1], in assay [2], in [3], in assay [4], in [5] and in assay [19] was > 10 µM in each case. Besides, the TGI in assay [6], in assay [7], in assay [8], in assay [9], in [10] and in assay [11] was > 10 µM in each case. For the same compound, the TGI in assay [12], in assay [13], in [14], in assay [15], in assay [16] and in assay [17] was > 10 µM throughout. In addition, the TGI in [18] was > 10 µM.

In the case of `CC12C(=O)OC(=O)C1(C)C1C=CC2O1` (stereo unspecified), the TGI in [1], in assay [2], in [3], in assay [4], in [5] and in [19] was > 100 µM each time. For the same compound, the TGI in [6], in assay [7], in assay [8], in [9], in assay [10] and in [11] was > 100 µM in each case. For the same compound, the TGI in [12], in [13], in assay [14], in assay [15], in assay [16] and in assay [17] was > 100 µM throughout. The TGI in assay [18] is > 100 µM.

For `CCN(CC)C(=S)SS(=O)(=O)c1ccc(NC(C)=O)cc1`, the TGI in assay [1] is > 76 µM; in [2] it was 33 µM; in [3] it was 31.6 µM; in assay [4] it was > 100 µM; in assay [5], 70.8 µM; in assay [19], 29.1 µM. The TGI was 62.3 µM in assay [6]; > 100 µM in assay [7]; 41.8 µM in assay [8]; > 100 µM in [9]; 97.2 µM in [10]; > 100 µM in assay [11]. Further, the TGI in [12] is > 100 µM; in assay [13], 76.4 µM; in assay [14] it was > 75.4 µM; in [15] it was > 78.4 µM; in assay [16], 58.7 µM; in assay [17] it was 44 µM.

For `O=S(=O)(O)C(Cc1nc2ccccc2[nH]1)S(=O)(=O)OCCC1S(=O)(=O)OCCOS1(=O)=O` (stereo unspecified), the TGI in assay [1], in assay [2], in assay [3], in assay [4], in assay [5] and in [19] was > 100 µM throughout. The TGI in assay [6], in assay [7], in [8], in assay [9], in [10] and in assay [11] was > 100 µM throughout. Further, the TGI in [12], in [13], in [14], in assay [15], in assay [16] and in [17] was > 100 µM each time. In addition, the TGI in assay [18] is > 100 µM.
